Measured values: US20230203043A1, “NOVEL IMIDAZOPYRAZINE DERIVATIVES” (Hoffmann-La Roche Inc., priority 2020, published 2023)
Counter-ions that a name gives are not always drawn. Like-named read-outs stand apart in the source and are kept apart here.

Test system: Acinetobacter baumannii ATCC17961
Experiment: Antimicrobial susceptibility testing: 90% growth inhibitory concentration (IC90) determination in Iso-Sensitest broth, OD600 growth
Format: cell-based
Conditions: Acinetobacter baumannii, ATCC17961, 16 h
Procedure, shortened: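 Twofold compound dilutions (e.g. 50 to 0.097 μM final) in Iso-Sensitest broth with ~5×10^(5) CFU/ml, 35±2 °C. OD600 read every 20 min over 16 h; IC90 from growth inhibition during logarithmic phase.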

[1] = read-out: A. baumannii ATCC 17961 IC90 (uM), strain ATCC 17961, OD600 growth over 16 h
[2] = strain ATCC 17961, OD600 growth over 16 h, read-out: A. baumannii ATCC 17961 IC90

CCc1cc(Nc2nccn3c(-c4c[nH]nc4C(F)(F)F)cnc23)ccc1C(=O)NCCNC(=O)[C@@H]1CC[C@@H](N)C1 [Example 586, N-[2-[[(1R,3R)-3-aminocyclo-pentanecarbonyl]amino]ethyl]-2-ethyl-4-[[3-[3-(trifluoromethyl)-1H-pyrazol-4-yl]imidazo[1,2-a]pyrazin-8-yl]amino]benzamide formate]
IC90 [1]: 0.434 µM

CCc1cc(Nc2nccn3c(-c4cn(CC#N)nc4C(F)(F)F)cnc23)ccc1C(=O)NCCNC(=O)[C@@H]1CC[C@@H](N)C1 [Example 587, N-(2-((1R,3R)-3-aminocyclopentane-1-carboxamido)ethyl)-4-((3-(1-(cyanomethyl)-3-(trifluoromethyl)-1H-pyrazol-4-yl)imidazo[1,2-a]pyrazin-8-yl)amino)-2-ethylbenzamide formate]
IC90 [1]: 0.221 µM

CCc1cc(Nc2nccn3c(-c4c[nH]nc4C(F)(F)F)cnc23)ccc1C(=O)NCCNC(=O)[C@H]1CC[C@H](N)C1 [Example 588, N-(2-((1S,3S)-3-aminocyclopentane-1-carboxamido)ethyl)-2-ethyl-4-((3-(3-(trifluoromethyl)-1H-pyrazol-4-yl)imidazo[1,2-a]pyrazin-8-yl)amino)benzamide formate]
IC90 [1]: 0.46 µM

CCc1cc(Nc2nccn3c(-c4cn(Cc5ccn(CC#N)n5)nc4C(F)(F)F)cnc23)ccc1C(=O)NC [Example 589, 4-((3-(1-((1-(cyanomethyl)-1H-pyrazol-3-yl)methyl)-3-(trifluoromethyl)-1H-pyrazol-4-yl)imidazo[1,2-a]pyrazin-8-yl)amino)-2-ethyl-N-methylbenzamide]
IC90 [2]: 0.84 µM

CNC(=O)c1ccc(Nc2nccn3c(-c4cn(Cc5ccn(CC#N)n5)nc4C(F)(F)F)cnc23)cc1Cl [Example 590, 2-chloro-4-((3-(1-((1-(cyanomethyl)-1H-pyrazol-3-yl)methyl)-3-(trifluoromethyl)-1H-pyrazol-4-yl)imidazo [1,2-a]pyrazin-8-yl)amino)-N-methylbenzamide]
IC90 [2]: 0.375 µM

CNC(=O)c1ccc(Nc2nccn3c(-c4cn(CCN(C)C)nc4C(F)(F)F)cnc23)cc1Cl [Example 591, 2-chloro-4-((3-(1-(2-(dimethylamino)ethyl)-3-(trifluoromethyl)-1H-pyrazol-4-yl)imidazo[1,2-a]pyrazin-8-yl)amino)-N-methylbenzamide formate]
IC90 [1]: 0.483 µM

CNC(=O)c1ccc(Nc2nccn3c(-c4cn(C5CCN(Cc6ccccc6)CC5)nc4C(F)(F)F)cnc23)cc1Cl [Example 592, 4-((3-(1-(1-benzylpiperidin-4-yl)-3-(trifluoromethyl)-1H-pyrazol-4-yl)imidazo[1,2-a]pyrazin-8-yl)amino)-2-chloro-N-methylbenzamide formate]
IC90 [1]: 0.402 µM

CNC(=O)c1ccc(Nc2nccn3c(-c4cn(CC5CCN(Cc6ccccc6)C5)nc4C(F)(F)F)cnc23)cc1Cl (stereo not shown) [Example 593, 4-((3-(1-((1-benzylpyrrolidin-3-yl)methyl)-3-(trifluoromethyl)-1H-pyrazol-4-yl)imidazo [1,2-a]pyrazin-8-yl)amino)-2-chloro-N-methylbenzamide formate]
IC90 [1]: 0.234 µM

CNC(=O)c1ccc(Nc2nccn3c(-c4cn(CCCc5ccc(CN)cc5)nc4C(F)(F)F)cnc23)cc1Cl [Example 594, 4-((3-(1-(3-(4-(aminomethyl)phenyl)propyl)-3-(trifluoromethyl)-1H-pyrazol-4-yl)imidazo[1,2-a]pyrazin-8-yl)amino)-2-chloro-N-methylbenzamide formate]
IC90 [1]: 0.164 µM

CNC(=O)c1ccc(Nc2nccn3c(-c4cn(Cc5cccc(CCN)c5)nc4C(F)(F)F)cnc23)cc1Cl [Example 595, 4-((3-(1-(3-(2-aminoethyl)benzyl)-3-(trifluoromethyl)-1H-pyrazol-4-yl)imidazo[1,2-a]pyrazin-8-yl)amino)-2-chloro-N-methylbenzamide formate]
IC90 [1]: 0.186 µM
